25 compounds from ChEMBL document CHEMBL1201862, “PubChem BioAssay data set” (2004) can be followed below.

What all share (experiment): growth of human tumour cells (NCI), 48 h
The test system of assay [1] is DLD-1.
In assay [2] the test system is DMS-273.
The subject of assay [3] is HOP-18.
Assay [4] has as its system KM-20L2.
Assay [5] concerns LXFL 529.
The subject of assay [6] is M19-MEL.
Assay [7] deals with XF498.
Assay [8] concerns DMS-114.
The test system of assay [9] is RXF 631.

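Growth conditions: 96-well plates. Treatment: test compound, 48 hours, 5 concentrations. Analysis: linear interpolation between bracketing concentrations; unreached endpoints set to highest concentration. GI50: concentration for 50% inhibition of growth.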 The source made the active and inactive calls. No stated cut-off is given here; in the data, active = GI50 up to about 1.1 µM and inactive = higher.

`CN(C)/C=C/C(=O)c1cccc(C(=O)/C=C/N(C)C)n1`: the GI50 in [1], in assay [2], in assay [3], in assay [4], in assay [5] and in assay [6] was > 100 µM (inactive) in each case. Besides, the GI50 in [7] is > 100 µM (inactive).
Take `COC(=O)N/N=C(/CCC(=O)Nc1ccc(C)c(C)c1)CC(=O)C(C)(C)C`: the GI50 in [1], in assay [8], in [2], in assay [3], in assay [4] and in assay [5] was > 100 µM (inactive) each time. Further, the GI50 in [6] and in assay [7] was > 100 µM (inactive) each time.
As for `OCc1cc2c(cn1)[nH]c1ccc(NCc3ccccc3)cc12`, the GI50 in [1] was 34.8 µM (inactive); in [8], 15.6 µM (inactive); in assay [2], 20.7 µM (inactive); in assay [4] it was 14.4 µM (inactive); in assay [5] it was 17.9 µM (inactive); in assay [6] it was 22.2 µM (inactive). Also, the GI50 in [9] is 27.4 µM (inactive); in [7] it was 25.8 µM (inactive).
On to `O=[N+]([O-])c1ccc(/C=N/C23CC4CC(CC(C4)C2)C3)cc1`, for which the GI50 in [1] was > 100 µM (inactive); in assay [8], 91.2 µM (inactive); in assay [2], > 100 µM (inactive); in assay [3] it was > 100 µM (inactive); in assay [4] it was > 100 µM (inactive); in assay [5], > 100 µM (inactive). The GI50 in assay [6], in assay [9] and in assay [7] was > 100 µM (inactive) in each case.
With `CCCOP(=S)(N1CC1)N1CC1`, the GI50 was > 100 µM (inactive) in assay [1]; > 100 µM (inactive) in assay [8]; > 100 µM (inactive) in assay [2]; 40.7 µM (inactive) in assay [3]; > 100 µM (inactive) in assay [4]; > 100 µM (inactive) in assay [6]. Further, the GI50 in assay [7] was > 100 µM (inactive).
In the case of `ClC/C=C/COC1CCCCO1` (centres undefined), the GI50 is > 100 µM (inactive) in assay [1]; 33.2 µM (inactive) in [8]; 62.2 µM (inactive) in [2]; > 100 µM (inactive) in [3]; > 100 µM (inactive) in assay [4]; > 100 µM (inactive) in assay [5]. In addition, the GI50 is > 100 µM (inactive) in assay [6], 34.8 µM (inactive) in assay [9] and 25.2 µM (inactive) in [7].
Turning to `COc1ccc(Cc2c3cc(O)c([O-])cc3cc[n+]2C)cc1`, the GI50 in [1] is 10.6 µM (inactive); in assay [8], 12.8 µM (inactive); in [2], 16.5 µM (inactive); in [3], 36.1 µM (inactive); in assay [4], 51.1 µM (inactive); in assay [6], 20.7 µM (inactive). The GI50 in assay [9] was 6.49 µM (inactive); in assay [7] it was 18.4 µM (inactive).
On to `N#CC(C(=O)Nc1ccccc1)C1=C(Cl)C(=O)c2ccccc2C1=O` (centres undefined), for which the GI50 in assay [1] is 17.1 µM (inactive); in [8], 17.8 µM (inactive); in [3], 10.7 µM (inactive); in [4] it was 23 µM (inactive); in assay [5], 19.9 µM (inactive); in assay [6], 7.66 µM (inactive). For the same compound, the GI50 in assay [7] was 16.7 µM (inactive).
On to `O=C1c2c(c3c4ccccc4n(CC4CO4)c3c3[nH]c4ccccc4c23)C(=O)N1Cc1ccccc1` (centres undefined), for which the GI50 in assay [1] was > 10 µM (inactive); in assay [8] it was > 100 µM (inactive); in assay [2], > 100 µM (inactive); in assay [5], > 100 µM (inactive); in [6] it was > 100 µM (inactive); in [9], > 100 µM (inactive). Besides, the GI50 in [7] was 3.7 µM (inactive).
Take `CC1=CC(=O)CC2(C)CC[C@@H]3C[C@]12OC3(C)C` (some centres undefined): the GI50 in assay [1], in [8], in assay [2], in [3], in assay [4] and in [5] was > 100 µM (inactive) each time. Besides, the GI50 in [6] and in [7] was > 100 µM (inactive) in each case.
`O=C1C2C=CC(n3[nH]c(=O)n(Cc4ccccc4)c3=O)CC2C(=O)N1c1cccc(Cl)c1` (centres undefined): the GI50 in assay [1], in assay [8], in [2], in [3], in assay [4] and in [5] was > 100 µM (inactive) throughout. Also, the GI50 in [6] is > 100 µM (inactive); in [7], 65.9 µM (inactive).
In the case of `NS(=O)(=O)c1ccc(NC2=CC(=O)C(=O)c3ccccc32)cc1`, the GI50 in assay [1] was > 100 µM (inactive); in assay [8], 43.2 µM (inactive); in assay [2] it was > 100 µM (inactive); in assay [3], > 100 µM (inactive); in assay [4], > 100 µM (inactive); in assay [5] it was > 100 µM (inactive). Besides, the GI50 in assay [6] was > 100 µM (inactive).
For the compound `CCOC(=O)C1=C(C)N(c2ccc(C)cc2)C2=C(C(=O)N(c3ccccc3)C2c2ccccc2)C1c1ccccc1` (centres undefined), the GI50 in assay [1] was 12.3 µM (inactive); in [8] it was 17.9 µM (inactive); in [2], > 25 µM (inactive); in assay [4] it was > 25 µM (inactive); in assay [5] it was 20 µM (inactive); in assay [6] it was > 25 µM (inactive). In addition, the GI50 in assay [9] and in [7] was > 25 µM (inactive) each time.
`COc1ccc(/C(C)=N/NC(N)=S)c(OC)c1`: the GI50 is > 100 µM (inactive) in [1]; 97.1 µM (inactive) in assay [8]; > 100 µM (inactive) in assay [3]; > 100 µM (inactive) in assay [4]; > 100 µM (inactive) in assay [5]; > 100 µM (inactive) in [6]. Further, the GI50 in [9] and in assay [7] was > 100 µM (inactive) each time.
In the case of `CCN(CC)CC(=O)O[C@]1(CC)C(=O)OCc2c1cc1n(c2=O)Cc2cc3ccccc3nc2-1`, the GI50 in [1] was 0.916 µM (active); in assay [8] it was 0.0142 µM (active); in assay [2] it was < 0.01 µM (active); in assay [3], 0.0908 µM (active); in assay [4] it was 0.152 µM (active); in [5], 0.404 µM (active). The figures for the GI50 in assay [6] and in assay [7] were 0.0902 µM (active) and 0.2 µM (active), respectively.
In the case of `O=C1OC(c2ccccc2)=N/C1=C/NC(Cc1ccccc1)C(=O)O` (centres undefined), the GI50 in assay [1], in assay [2], in assay [4], in [5], in [6] and in assay [9] was > 100 µM (inactive) throughout.
Regarding `CC1=NN(C(=O)Cc2ccccc2)C(=O)/C1=C\c1ccc([N+](=O)[O-])cc1`, the GI50 in assay [1], in assay [8], in [4], in assay [5], in [6] and in assay [7] was > 100 µM (inactive) in each case.
Take `CN1C(=O)N(c2nc3ccccc3[nH]2)C(C)(C)C1=O`: the GI50 in assay [1], in assay [8], in assay [2], in [3], in assay [4] and in assay [5] was > 100 µM (inactive) each time. In addition, the GI50 in assay [6] and in [7] was > 100 µM (inactive) in each case.
`Clc1ccccc1C1N2CCCCC2[C@@H]2c3[nH]c4ccccc4c3CCN12` (some centres undefined): the GI50 is 18.9 µM (inactive) in [1]; 20 µM (inactive) in assay [8]; 27.4 µM (inactive) in [2]; 42 µM (inactive) in [3]; 18.6 µM (inactive) in assay [4]; 31 µM (inactive) in assay [5]. Besides, the GI50 in assay [6] was 14.7 µM (inactive); in assay [7], 19.4 µM (inactive).
As to `COc1ccc(/C=C/c2nnc(S)[nH]2)cc1OC`, the GI50 in [1], in assay [8], in assay [2], in assay [4], in assay [5] and in assay [6] was > 100 µM (inactive) throughout. The GI50 in assay [7] was > 100 µM (inactive).
Regarding `O=C1C(Cl)C(c2cc(Br)cc(Br)c2O)N1n1cnc2ccccc2c1=O` (centres undefined), the GI50 in assay [1] was 8.87 µM (inactive); in assay [2] it was 29.4 µM (inactive); in [3], 24.5 µM (inactive); in assay [4] it was 32.5 µM (inactive); in assay [5] it was 21 µM (inactive); in assay [6] it was 16.7 µM (inactive). Also, the GI50 in assay [7] is 23.3 µM (inactive).
On to `O=c1c2ccccc2nc(-c2cccc(Cl)c2)n1NCC1(O)OCC(O)C(O)C1O` (centres undefined), for which the GI50 is > 100 µM (inactive) in assay [8]; > 100 µM (inactive) in [2]; > 100 µM (inactive) in assay [4]; 93.1 µM (inactive) in assay [5]; > 100 µM (inactive) in assay [6]; 66.5 µM (inactive) in [9].
Regarding `CCOC(=O)c1[nH]c(COC(C)=O)c(CCCOC(C)=O)c1CCCOC(C)=O`, the GI50 in [2], in [4], in [5] and in assay [7] was > 100 µM (inactive) each time.
For `NC1=C(O)c2cccc3cccc(c23)C1=O`, the GI50 in [1], in assay [8], in assay [2], in assay [3], in assay [4] and in assay [5] was > 100 µM (inactive) throughout. Also, the GI50 in [6] and in [9] was > 100 µM (inactive) each time.
Take `O=c1cc(-c2ccccc2F)[nH]c2cc3c(cc12)OCO3`: the GI50 in [1] is 0.0441 µM (active); in assay [8] it was 0.508 µM (active); in assay [2] it was 0.189 µM (active); in [3], 0.544 µM (active); in assay [5] it was 0.0403 µM (active); in assay [6] it was 0.236 µM (active). In addition, in [7], the GI50 is 1.5 µM (inactive).
